Test results taken from patent publication EP0133550B1, “Process for producing arphamenine in high yield” (MICROBIAL CHEMISTRY RESEARCH FOUNDATION, priority 1983, dated 1985).

Target: T1, aminopeptidase B (Rattus norvegicus, UniProt O09175)
T1 sequence (O09175 1-650): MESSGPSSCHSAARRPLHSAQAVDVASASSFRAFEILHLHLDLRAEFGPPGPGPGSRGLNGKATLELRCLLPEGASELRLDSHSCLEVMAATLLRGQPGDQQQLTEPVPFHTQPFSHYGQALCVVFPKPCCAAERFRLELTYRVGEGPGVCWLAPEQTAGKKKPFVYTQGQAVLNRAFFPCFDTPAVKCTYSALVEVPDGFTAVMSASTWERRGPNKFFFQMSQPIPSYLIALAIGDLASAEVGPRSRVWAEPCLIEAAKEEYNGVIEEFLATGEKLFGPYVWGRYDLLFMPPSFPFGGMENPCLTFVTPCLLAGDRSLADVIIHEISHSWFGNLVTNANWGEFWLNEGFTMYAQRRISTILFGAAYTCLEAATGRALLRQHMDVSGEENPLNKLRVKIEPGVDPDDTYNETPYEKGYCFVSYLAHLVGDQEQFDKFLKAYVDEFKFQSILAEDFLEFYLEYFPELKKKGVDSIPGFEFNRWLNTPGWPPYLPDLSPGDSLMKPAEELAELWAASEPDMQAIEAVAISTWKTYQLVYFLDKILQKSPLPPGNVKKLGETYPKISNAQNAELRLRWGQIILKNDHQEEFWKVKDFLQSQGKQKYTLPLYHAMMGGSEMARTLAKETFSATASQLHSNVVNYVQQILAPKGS
Test: Inhibition of aminopeptidase B (improved method of Hoppusu et al., arginine-ß-naphthylamide substrate, absorbance at 525 nm)
Type: biochemical
Conditions: 0.002 M arginine-ß-naphthylamide, pH 7.0, 30 minutes at 37°C; read-out: IC50 (concentration which inhibited 50% of aminopeptidase B activity) (converted)
Method: The amount (potency) of arphamenine was determined by an improved method based on the method of Hoppusu et al. (V.K. HOPPUSU, K.K. MAKINEN & G.G. GLENNER, Archieves of Biochemistry and Biophysics 114, 557,1966). In detail, 0.5 ml of 0.1 M tris-hydrochloric acid buffer solution (pH 7.0) and 0.25 ml of a solution containing the specimen were added to 0.25 ml of 0.002 M arginine-ß-naphthylamide. The resulting mixed solution was heated for 3 minutes at 37°C. To the heated solution was added 5 pl of a solution of aminopeptidase B that had been purified by the use of DEAE-cellulose according to the enzyme- purification technique of Hoppusu et al.
The mixture was reacted for 30 minutes at 37°C, followed by adding to the reaction mixture 1 ml of 1.0 M acetic acid buffer solution (pH 4.2) containing Fast Garnet GBC@ (0-aminoazotoluene diazonium salt) in a concentration of 1 mg/ml and the surfactant Tween 20@ in a concentration of 10%.
The resulting mixture was allowed to stand for 15 minutes at room temperature, and measured for adsorbance (a) at 525 nm. Simultaneously, a blank absorbance (b) was obtained using an arphamenine- free buffer solution only. Percent inhibition of aminopeptidase B was calculated from the equation [(b-a)/b] x 100.

## N=C(N)NCCCC(N)C(=O)CC(Cc1ccc(O)cc1)C(=O)O (stereo not shown) [arphamenine B]
  IC50: 5.95 nM
